The values that follow come from US20120225862A1, “HETEROARYL BENZAMIDES, COMPOSITIONS AND METHODS OF USE” (AUCKLAND UNIVSERVICES LIMITED, priority 2009, published 2012).

SMILES strings stand for the structures.

In assay [1] the test system is RCC4. The assay is described as follows: XTT IC50 / viability assay, RCC4 cells. The assay is classed as cell-based, human. The following applies: Homo sapiens, RCC4, 96 h; XTT assay, four days. The procedure:
(§1) RCC4 parental and RCC4 with VHL-reintroduced (RCC4/VHL), SN12C and SN12C-CSCG-VHL shRNA were maintained in DMEM supplemented with 10% FCS.
(§2) IC50 values for compounds were determined by XTT assay. For 2,3-bis[2-methoxy-4-nitro-5-sulfophenyl]-2H-tetrazolium-5-carboxanilide inner salt (XTT) assays, five thousand cells were plated in 96-well plates. The next day, vehicle or drug was added to each well and incubated for four days. Media was aspirated and phenol red-free medium with 0.3 mg/mL XTT and 2.65 ug/mL N-methyl dibenzopyrazine methyl sulfate was added. This was incubated at 37° C. for 1-2 hours and absorbance was read at 450 nm. IC50 values for each compound were calculated using linear interpolation.
(§3) For 2,3-bis[2-methoxy-4-nitro-5-sulfophenyl]-2H-tetrazolium-5-carboxanilide (XTT) assays, five thousand cells were plated in 96-well plates. The next day, vehicle (DMSO) or drug was added by serial dilution. Four days later, media were aspirated, XTT solution (0.3 mg/ml of XTT (Sigma), 2.65 mg/ml N-methyl dibenxopyrazine methyl sulfate (Simga) in phenol red-free media) was added, and the plates were incubated at 37° C. for 1-2 hours. Metabolism of XTT was quantified by measuring the absorbance at 450 nm. IC50s were calculated using linear interpolation. For clonogenic survival assays, three hundred cells were plated per 60 mm tissue culture dish. The cells were allowed to attach overnight and then treated with vehicle or drug for 14 days. Colonies were fixed and stained with crystal violet (0.1% crystal violet in 95% ethanol). All conditions were measured in triplicate and each experiment was done in duplicate or triplicate. To determine necrosis, cells were treated with drug for a given time point. Media and cells were collected, centrifugated, and resuspended in 0.4% trypan blue (Invitrogen). Live and dead cells were counted on a hematocytometer.
(In general: Tetrazolium assays rely on reduction of a dye to a coloured formazan, in cell work by metabolically active cells.)

Assay [2] has as its system RCC4/VHL. The assay can be described thus: XTT IC50 assay, selectivity RCC4 versus RCC4 with VHL-reintroduced. To be noted: selectivity ratio of XTT IC50 values, RCC4 vs RCC4/VHL. Type of assay: cell-based, human. The procedure:
as §1, §2, §3

As a reminder, the IC50 is the concentration needed to halve the response being measured. Read a low IC50 as inhibition by little substance. In assay [1], `Cc1cc(C)cc(COC(=O)NCc2ccc(C(=O)Nc3cccnc3)cc2)c1` [Compound A, reference compound] gave an IC50 greater than 20 µM. The “Ratio (RCC4:RCC/VHL)” value in assay [2] is on record as “a (“a” reflects a ratio of RCC4/RCC-VHL+ ranging from 1 to 10)”.

Compound `CC(C)(C)c1ccc(CNCc2ccc(C(=O)Nc3cccnc3)cc2)cc1` [Compound B, reference compound] yielded an IC50 in assay [1] of 1 to 20 µM. In assay [2], the “Ratio (RCC4:RCC/VHL)” value is “a (“a” reflects a ratio of RCC4/RCC-VHL+ ranging from 1 to 10)”.

Consider `Cc1cc(C)cc(CNCc2ccc(C(=O)Nc3cccnc3)cc2)c1` [Compound C, reference compound], for which the IC50 in assay [1] is greater than 20 µM.

Take `CC(C)(C)c1ccc(COC(=O)NCc2ccc(C(=O)Nc3cccnc3)cc2)cc1` [Compound D, reference compound]: the IC50 in assay [1] is greater than 20 µM.

`Cc1cccc(Nc2nc(-c3ccncc3)cs2)c1` [Compound E, reference compound]: the IC50 in assay [1] was in the range of 1 to 20 µM. In assay [2], the “Ratio (RCC4:RCC/VHL)” value is “b (“b” reflects from 10 to 100)”.

In turn, `O=C(Nc1ccccn1)c1ccc(CNS(=O)(=O)c2ccccc2)cc1` [Example 1, 4-(Phenylsulfonamidomethyl)-N-(pyridin-2-yl)benzamide] gave an IC50 in assay [1] greater than 20 µM.

As to `O=C(Nc1cccnc1)c1ccc(CNS(=O)(=O)c2ccccc2)cc1` [Example 2, 4-(Phenylsulfonamidomethyl)-N-(pyridin-3-yl)benzamide], in assay [1], the IC50 lay within 1 to 20 µM. Further, the “Ratio (RCC4:RCC/VHL)” value in assay [2] is given as “a (“a” reflects a ratio of RCC4/RCC-VHL+ ranging from 1 to 10)”.

The compound `O=C(Nc1ccncc1)c1ccc(CNS(=O)(=O)c2ccccc2)cc1` [Example 3, 4-(Phenylsulfonamidomethyl)-N-(pyridin-4-yl)benzamide] had an IC50 in assay [1] greater than 20 µM.

In assay [1], `Cc1ccccc1S(=O)(=O)NCc1ccc(C(=O)Nc2cccnc2)cc1` [Example 10, 4-((2-Methylphenylsulfonamido)methyl)-N-(pyridin-3-yl)benzamide] had a half-inhibitory concentration (IC50) of 1 to 20 µM. Further, the “Ratio (RCC4:RCC/VHL)” value in assay [2] was “a (“a” reflects a ratio of RCC4/RCC-VHL+ ranging from 1 to 10)”.

In assay [1], `O=C(Nc1cccnc1)c1ccc(CNS(=O)(=O)c2ccccc2F)cc1` [Example 11, 4-((2-Fluorophenylsulfonamido)methyl)-N-(pyridin-3-yl)benzamide] showed an IC50 of 1 to 20 µM. Also, the “Ratio (RCC4:RCC/VHL)” value in assay [2] is recorded as “a (“a” reflects a ratio of RCC4/RCC-VHL+ ranging from 1 to 10)”.

For `O=C(Nc1cccnc1)c1ccc(CNS(=O)(=O)c2ccccc2Cl)cc1` [Example 12, 4-((2-Chlorophenylsulfonamido)methyl)-N-(pyridin-3-yl)benzamide], in assay [1], the IC50 was 1 to 20 µM. Moreover, in assay [2], the “Ratio (RCC4:RCC/VHL)” value is “a (“a” reflects a ratio of RCC4/RCC-VHL+ ranging from 1 to 10)”.

With `O=C(Nc1cccnc1)c1ccc(CNS(=O)(=O)c2ccccc2Br)cc1` [Example 13, 4-((2-Bromophenylsulfonamido)methyl)-N-(pyridin-3-yl)benzamide], the IC50 in assay [1] lay in the range of 1 to 20 µM. Moreover, in assay [2], the “Ratio (RCC4:RCC/VHL)” value is “a (“a” reflects a ratio of RCC4/RCC-VHL+ ranging from 1 to 10)”.

`N#Cc1ccccc1S(=O)(=O)NCc1ccc(C(=O)Nc2cccnc2)cc1` [Example 16, 4-((2-Cyanophenylsulfonamido)methyl)-N-(pyridin-3-yl)benzamide]: the IC50 in assay [1] was greater than 20 µM. Besides, in assay [2], the “Ratio (RCC4:RCC/VHL)” value was “a (“a” reflects a ratio of RCC4/RCC-VHL+ ranging from 1 to 10)”.

For the compound `Nc1cccc(S(=O)(=O)NCc2ccc(C(=O)Nc3cccnc3)cc2)c1` [Example 17, 4-((3-Aminophenylsulfonamido)methyl)-N-(pyridin-3-yl)benzamide], the IC50 in assay [1] lay within 1 to 20 µM. Also, the “Ratio (RCC4:RCC/VHL)” value in assay [2] is reported as “b (“b” reflects from 10 to 100)”.

Turning to `Cc1cccc(S(=O)(=O)NCc2ccc(C(=O)Nc3cccnc3)cc2)c1` [Example 19, 4-((3-Methylphenylsulfonamido)methyl)-N-(pyridin-3-yl)benzamide], the IC50 in assay [1] is less than 1 µM. The “Ratio (RCC4:RCC/VHL)” value in assay [2] is listed as “b (“b” reflects from 10 to 100)”.

In the case of `O=C(Nc1cccnc1)c1ccc(CNS(=O)(=O)c2cccc(F)c2)cc1` [Example 20, 4-((3-Fluorophenylsulfonamido)methyl)-N-(pyridin-3-yl)benzamide], in assay [1], the IC50 is less than 1 µM. Moreover, in assay [2], the “Ratio (RCC4:RCC/VHL)” value is recorded as “b (“b” reflects from 10 to 100)”.

Turning to `O=C(Nc1cccnc1)c1ccc(CNS(=O)(=O)c2cccc(Cl)c2)cc1` [Example 21, 4-((3-Chlorophenylsulfonamido)methyl)-N-(pyridin-3-yl)benzamide], the IC50 in assay [1] was less than 1 µM. Moreover, the “Ratio (RCC4:RCC/VHL)” value in assay [2] is reported as “b (“b” reflects from 10 to 100)”.

The compound `O=C(Nc1cccnc1)c1ccc(CNS(=O)(=O)c2cccc(Br)c2)cc1` [Example 22, 4-((3-Bromophenylsulfonamido)methyl)-N-(pyridin-3-yl)benzamide] gave an IC50 in assay [1] of less than 1 µM. The “Ratio (RCC4:RCC/VHL)” value in assay [2] is reported as “b (“b” reflects from 10 to 100)”.

The compound `O=C(Nc1cccnc1)c1ccc(CNS(=O)(=O)c2cccc(C(F)(F)F)c2)cc1` [Example 23, N-(Pyridin-3-yl)-4-((3-(trifluoromethyl)phenylsulfonamido)methyl)benzamide] yielded an IC50 in assay [1] of less than 1 µM. Also, in assay [2], the “Ratio (RCC4:RCC/VHL)” value is recorded as “b (“b” reflects from 10 to 100)”.

Turning to `N#Cc1cccc(S(=O)(=O)NCc2ccc(C(=O)Nc3cccnc3)cc2)c1` [Example 24, 4-((3-Cyanophenylsulfonamido)methyl)-N-(pyridin-3-yl)benzamide], the IC50 in assay [1] was in the range of 1 to 20 µM. The “Ratio (RCC4:RCC/VHL)” value in assay [2] is reported as “a (“a” reflects a ratio of RCC4/RCC-VHL+ ranging from 1 to 10)”.

Regarding `O=C(Nc1cccnc1)c1ccc(CNS(=O)(=O)c2cccc([N+](=O)[O-])c2)cc1` [Example 25, 4-((3-Nitrophenylsulfonamido)methyl)-N-(pyridin-3-yl)benzamide], the IC50 in assay [1] lay in the range of 1 to 20 µM. Also, the “Ratio (RCC4:RCC/VHL)” value in assay [2] is given as “b (“b” reflects from 10 to 100)”.

Turning to `O=C(Nc1cccnc1)c1ccc(CNS(=O)(=O)c2cccc(-c3ccccc3)c2)cc1` [Example 26, 4-{[([1,1′-Biphenyl]-3-ylsulfonyl)amino]methyl}-N-(3-pyridinyl)benzamide], the IC50 in assay [1] is 1 to 20 µM. Further, the “Ratio (RCC4:RCC/VHL)” value in assay [2] is “b (“b” reflects from 10 to 100)”.

For the compound `O=C(Nc1cccnc1)c1ccc(CNS(=O)(=O)c2cccc(-c3ncccn3)c2)cc1` [Example 27, 4-[({[3-(2-Pyrimidinyl)phenyl]sulfonyl}amino)methyl]-N-(3-pyridinyl)benzamide], in assay [1], the IC50 was less than 1 µM. The “Ratio (RCC4:RCC/VHL)” value in assay [2] is recorded as “b (“b” reflects from 10 to 100)”.

In the case of `Cn1ccc(-c2cccc(S(=O)(=O)NCc3ccc(C(=O)Nc4cccnc4)cc3)c2)n1` [Example 28, 4-[({[3-(1-Methyl-1H-pyrazol-3-yl)phenyl]sulfonyl}amino)methyl]-N-(3-pyridinyl)benzamide], the IC50 in assay [1] was less than 1 µM. The “Ratio (RCC4:RCC/VHL)” value in assay [2] is on record as “c (“c” reflects a ratio of >100)”.

As for `Cc1nnc(-c2cccc(S(=O)(=O)NCc3ccc(C(=O)Nc4cccnc4)cc3)c2)o1` [Example 29, 4-[({[3-(5-Methyl-1,3,4-oxadiazol-2-yl)phenyl]sulfonyl}amino)methyl]-N-(3-pyridinyl)benzamide], in assay [1], the IC50 fell in the range of 1 to 20 µM. Besides, in assay [2], the “Ratio (RCC4:RCC/VHL)” value is given as “b (“b” reflects from 10 to 100)”.

In turn, `Cc1nc(-c2cccc(S(=O)(=O)NCc3ccc(C(=O)Nc4cccnc4)cc3)c2)no1` [Example 30, 4-[({[3-(5-Methyl-1,2,4-oxadiazol-3-yl)phenyl]sulfonyl}amino)methyl]-N-(3-pyridinyl)benzamide] returned an IC50 in assay [1] of less than 1 µM. In addition, in assay [2], the “Ratio (RCC4:RCC/VHL)” value is given as “c (“c” reflects a ratio of >100)”.

Consider `CC(C)(C)c1ccc(C(=O)NCc2ccc(C(=O)Nc3cccnc3)cc2)cc1` [Example 86, 4-tert-Butyl-N-(4-(pyridin-3-ylcarbamoyl)benzyl)benzamide], for which, in assay [1], the IC50 was greater than 20 µM.

`CC(C)(C)c1ccc(S(=O)(=O)NCc2cccc(C(=O)Nc3cccnc3)c2)cc1` [Example 91, 3-[(4-tert-Butylphenylsulfonamido)methyl]-N-(3-pyridinyl)benzamide] registered a half-maximal inhibitory concentration (IC50) in assay [1] greater than 20 µM.

With `O=C(Nc1cccnc1)c1cccc(CNS(=O)(=O)c2ccccc2)c1` [Example 92, 3-[(Phenylsulfonamido)methyl]-N-(3-pyridinyl)benzamide], the IC50 in assay [1] was greater than 20 µM.

In the case of `O=C(Nc1ccncc1)c1ccc(CNS(=O)(=O)c2ccc(Br)cc2)cc1` [Example 96, 4-[(4-Bromophenylsulfonamido)methyl]-N-(4-pyridinyl)benzamide], the IC50 in assay [1] is greater than 20 µM.

The compound `O=C(Nc1ccncc1)c1ccc(CNS(=O)(=O)c2ccc(F)cc2)cc1` [Example 97, 4-[(4-Fluorophenylsulfonamido)methyl]-N-(4-pyridinyl)benzamide] came in with an IC50 in assay [1] greater than 20 µM.

Turning to `NCCOCCOCCOCCOCCOCCOCC#Cc1ccc(S(=O)(=O)NCc2ccc(C(=O)Nc3ccncc3)cc2)cc1` [Example 105, 4-[({[4-(21-Amino-4,7,10,13,16,19-hexaoxahenicos-1-yn-1-yl)phenyl]sulfonyl}amino)methyl]-N-(4-pyridinyl)benzamide], the IC50 in assay [1] is greater than 20 µM.
